From ChEMBL document CHEMBL1201862, “PubChem BioAssay data set” (2004)
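Exposure lasted 48 hours, with cells grown in 96-well plates and compounds tested at five concentrations. GI50 marks 50% less growth.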 Calls of active or inactive are those of the source. Cut-off read from the data, not from the text of the source: active = GI50 up to about 1.1 µM and inactive = higher.

Columns and labels:
Test in all cases: NCI tumour cell line growth inhibition, 48 h
[1] = system: 786-0
[2] = system: ACHN
[3] = system: CCRF-CEM
[4] = system: COLO 205
[5] = system: DLD-1
[6] = system: DMS-114
[7] = system: DMS-273
[8] = system: EKVX
[9] = system: HCC 2998
[10] = system: HCT-116
[11] = system: HCT-15
[12] = system: HL-60
[13] = system: HOP-18
[14] = system: HOP-92
[15] = system: HT-29
[16] = system: IGROV-1
[17] = system: K562
[18] = system: KM-20L2
[19] = system: KM12
[20] = system: LOX IMVI
[21] = system: LXFL 529
[22] = system: M14
[23] = system: M19-MEL
[24] = system: MOLT-4
[25] = system: Malme-3M
[26] = system: NCI-H226
[27] = system: NCI-H23
[28] = system: NCI-H460
[29] = system: NCI-H522
[30] = system: OVCAR-3
[31] = system: OVCAR-5
[32] = system: OVCAR-8
[33] = system: RPMI-8226
[34] = system: RXF 393
[35] = system: RXF 631
[36] = system: SF-268
[37] = system: SF-295
[38] = system: SF-539
[39] = system: SK-MEL-2
[40] = system: SK-MEL-5
[41] = system: SK-OV-3
[42] = system: SN12C
[43] = system: SNB-19
[44] = system: SNB-75
[45] = system: SNB-78
[46] = system: SR
[47] = system: SW-620
[48] = system: TK-10
[49] = system: U-251
[50] = system: UACC-257
[51] = system: UACC-62
[52] = system: UO-31
[53] = system: XF498
[54] = system: A498
[55] = system: A549
[56] = system: CAKI-1
[57] = system: HOP-62
[58] = system: OVCAR-4
[59] = system: SK-MEL-28

O=C1[C@@H]2C3c4ccccc4C([C@@H]2C(=O)N1c1ccccc1)S3(=O)=O
GI50 [1]: 55.8 µM (inactive) | GI50 [2]: > 100 µM (inactive) | GI50 [3]: 32.1 µM (inactive) | GI50 [4]: > 100 µM (inactive) | GI50 [5]: > 100 µM (inactive) | GI50 [6]: 37.9 µM (inactive) | GI50 [7]: > 100 µM (inactive) | GI50 [8]: > 100 µM (inactive) | GI50 [9]: > 100 µM (inactive) | GI50 [10]: > 100 µM (inactive) | GI50 [11]: > 100 µM | GI50 [12]: > 100 µM (inactive) | GI50 [13]: > 100 µM (inactive) | GI50 [14]: > 100 µM (inactive) | GI50 [15]: > 100 µM (inactive) | GI50 [16]: > 100 µM (inactive) | GI50 [17]: 61.4 µM (inactive) | GI50 [18]: > 100 µM (inactive) | GI50 [19]: > 100 µM (inactive) | GI50 [20]: 47.2 µM (inactive) | GI50 [21]: > 100 µM (inactive) | GI50 [22]: > 100 µM (inactive) | GI50 [23]: > 100 µM (inactive) | GI50 [24]: > 100 µM (inactive) | GI50 [25]: > 100 µM (inactive) | GI50 [26]: > 100 µM (inactive) | GI50 [27]: > 100 µM (inactive) | GI50 [28]: 31.1 µM (inactive) | GI50 [29]: 74.3 µM (inactive) | GI50 [30]: > 100 µM (inactive) | GI50 [31]: > 100 µM (inactive) | GI50 [32]: > 100 µM (inactive) | GI50 [33]: > 100 µM (inactive) | GI50 [34]: 38.1 µM (inactive) | GI50 [35]: 26.8 µM (inactive) | GI50 [36]: 38.9 µM (inactive) | GI50 [37]: 81.7 µM (inactive) | GI50 [38]: > 100 µM (inactive) | GI50 [39]: > 100 µM (inactive) | GI50 [40]: > 100 µM (inactive) | GI50 [41]: > 100 µM (inactive) | GI50 [42]: 61.5 µM (inactive) | GI50 [43]: 48.8 µM (inactive) | GI50 [44]: 65.3 µM (inactive) | GI50 [45]: > 100 µM (inactive) | GI50 [46]: > 100 µM (inactive) | GI50 [47]: 51.4 µM (inactive) | GI50 [48]: > 100 µM (inactive) | GI50 [49]: 47.2 µM (inactive) | GI50 [50]: > 100 µM (inactive) | GI50 [51]: > 100 µM (inactive) | GI50 [52]: > 100 µM (inactive) | GI50 [53]: > 100 µM (inactive)

O=C(Nc1c(Cl)cc([N+](=O)[O-])cc1Cl)C(=O)C(C(=O)c1ccncc1)C1OC(=O)c2ccccc21 (centres undefined)
GI50 [1]: > 100 µM (inactive) | GI50 [54]: > 100 µM (inactive) | GI50 [55]: > 100 µM (inactive) | GI50 [2]: > 100 µM (inactive) | GI50 [56]: > 100 µM (inactive) | GI50 [3]: > 100 µM (inactive) | GI50 [4]: > 100 µM (inactive) | GI50 [5]: > 100 µM (inactive) | GI50 [6]: > 100 µM (inactive) | GI50 [7]: > 100 µM (inactive) | GI50 [8]: > 100 µM (inactive) | GI50 [9]: > 100 µM (inactive) | GI50 [10]: > 100 µM (inactive) | GI50 [11]: > 100 µM | GI50 [12]: > 100 µM (inactive) | GI50 [13]: > 100 µM (inactive) | GI50 [57]: > 100 µM (inactive) | GI50 [14]: > 100 µM (inactive) | GI50 [15]: > 100 µM (inactive) | GI50 [16]: > 100 µM (inactive) | GI50 [17]: > 100 µM (inactive) | GI50 [18]: > 100 µM (inactive) | GI50 [19]: > 100 µM (inactive) | GI50 [20]: > 100 µM (inactive) | GI50 [21]: > 100 µM (inactive) | GI50 [22]: > 100 µM (inactive) | GI50 [23]: > 100 µM (inactive) | GI50 [24]: > 100 µM (inactive) | GI50 [25]: > 100 µM (inactive) | GI50 [26]: > 100 µM (inactive) | GI50 [27]: > 100 µM (inactive) | GI50 [28]: > 100 µM (inactive) | GI50 [29]: > 100 µM (inactive) | GI50 [30]: > 100 µM (inactive) | GI50 [58]: > 100 µM (inactive) | GI50 [31]: > 100 µM (inactive) | GI50 [32]: > 100 µM (inactive) | GI50 [33]: > 100 µM (inactive) | GI50 [34]: > 100 µM (inactive) | GI50 [35]: > 100 µM (inactive) | GI50 [36]: > 100 µM (inactive) | GI50 [37]: > 100 µM (inactive) | GI50 [59]: > 100 µM (inactive) | GI50 [41]: > 100 µM (inactive) | GI50 [42]: > 100 µM (inactive) | GI50 [43]: > 100 µM (inactive) | GI50 [44]: 35 µM (inactive) | GI50 [45]: > 100 µM (inactive) | GI50 [46]: > 100 µM (inactive) | GI50 [47]: > 100 µM (inactive) | GI50 [48]: > 100 µM (inactive) | GI50 [49]: > 100 µM (inactive) | GI50 [50]: > 100 µM (inactive) | GI50 [51]: > 100 µM (inactive) | GI50 [52]: > 100 µM (inactive) | GI50 [53]: > 100 µM (inactive)
